Source: US11878075B2, “Sustained release formulations of dysoxylum binefacterum” (COUNCIL OF SCIENTIFIC AND INDUSTRIAL RESEARCH, priority 2018, dated 2024)

Tests used:
[1] = test system: TNF-alpha production in THP-1 cells; assay: In-vitro cytokine inhibition in LPS-stimulated THP-1 cells (TNF-α ELISA); assay type: cell-based, human; conditions: THP-1 cells, 1.56, 3.12, and 6.25 μg/mL
Experimental: For the in vitro analysis of pro-inflammatory cytokine (TNF-α), human leukemia THP-1 cells were seeded in a 24-well plate at a density of 4×10^5 cells/ml of RPMI medium per well. THP-1 cells were then treated with PMA (20 ng/ml) for differentiation into macrophages for 18 h followed by a rest period of 48 h. Cells were further co-treated with test samples and 1 μg/ml of lipopolysaccharide (LPS) in a serum-free medium. Culture supernatant was harvested after 24 h for analysis of TNF-α by using OptEIA ELISA Kits from BD Biosciences. Total protein content for all the samples was calculated by using Bradford reagent from Bio-Rad Laboratories. All samples were normalized by dividing cytokine concentration with total quantity of protein. Betamethasone was used as positive control in this study.

in vivo = conditions: male, SD, rat
Experimental: The pharmacokinetic study was performed in male SD rats. First the pharmacokinetic study of “rohitukine” was performed by both intravenous as well as per oral (PO) routes in order to understand the oral exposure and oral bioavailability of rohitukine. Rohitukine was administered at 5 mg/kg by IV route and at 50 mg/kg by oral route. For comparative oral pharmacokinetic study of plain extract (A002-AEF) and SR formulation “SR-A002-AEF” formulation (filled in 9e1 capsules), the dose equivalent to 6.77 mg/kg dose of rohitukine was administered in SD rats in both these groups. Blood samples were collected (n=3/time point) at 0.083 (IV only), 0.25, 0.5, 1, 2, 4, 8 and 24 h, post-dose. At each time point about 200 μL of blood was collected by jugular vein into a labeled microfuge tube containing 200 mM K2EDTA solution (20 μL per mL of blood) and equivalent volume of heparinized saline was replaced following sample collection. The blood samples were processed to obtain the plasma samples within 30 min of scheduled sampling time. All plasma samples were stored below −60° C. until bioanalysis. The plasma samples were analyzed for rohitukine content using a fit-for purpose LC-MS/MS method with a lower limit of quantification (LLOQ) of 9.95 ng/mL. The pharmacokinetic parameters of rohitukine were calculated using the non-compartmental analysis tool of validated Phoenix® WinNonlin® software (version 6.3).

IL-6 = assay: Collagen induced arthritis model, serum IL-6; assay type: in vivo, DBA/1J mice; conditions: oral administration in arthritic mice, day 34 to day 48
Experimental: (§1) Six weeks old DBA/1J mice (procured from Jackson Laboratories, USA) were used in this study. On the day of the immunization (day 1), required amount of Chicken collagen II (CII), 2 mg/ml (Chondrex Inc, USA) stock solution was thawed at 4° C. into a small (20 ml) glass bottle. Equal volume of CII solution was added to the complete Freund's adjuvant (CFA), 1 mg/ml, (Sigma aldrich, USA) in 1:1 ratio and homogenized at 4° C. to produce a homogenous, stiff, white creamy emulsion for immunization. Mice were weighed and anesthetized with isoflurane. 150 μl of CII/CFA (1:1) emulsion was injected intradermally at two different sites into the mice lower back (previously shaven) on day 1. Mice were given the booster on day-21 in a similar manner as day 1 except that CII was emulsified in incomplete Freund's adjuvant. Mice were given booster of LPS from E. coli (50 μg/mouse; Sigma Aldrich, USA) on day 28. Dosing of the test samples in DBA/1J mouse CIA model was initiated after development of clinical symptoms. Animals were randomized into different treatment groups based on clinical scores on day 33. Treatment continued from day 34 to day 48. Serum IL-6, TNF-α estimation was done using ELISA kit from R & D Systems, USA. All values are expressed as Mean±SEM. * p<0.05 as compared to vehicle treatment, one way ANOVA followed by Dunnett's multiple comparison test.

TNF-α [2] = assay: LPS induced septic shock model, serum TNF-α ELISA; assay type: in vivo, BALB/C mice; conditions: 20 mg/kg (PO)
Experimental: The effect of rohitukine, hydroalcoholic extract (A002-A) and rohitukine-enriched fraction (A002-AEF) on TNF-α secretion was studied in LPS induced septic shock model in BALB/C mice. BALB/C female mice (20-25 g) were randomly divided into 6 groups (n=4 per group). Animals were treated according to the following pattern: group 1 (vehicle), group 2 (LPS, 20 mg/kg), group 3 (Rohitukine, 20 mg/kg), group 4 (A002-A, 200 mg/kg), group 5 (A002-AEF, 200 mg/kg), group 6 (dexamethasone, 10 mg/kg). The hydroalcholic extract (A002-A) and its enriched fraction A002-AEF was dissolved in water and dexamethasone was dissolved in PBS. PBS/water was used as a vehicle control. Compounds and vehicle were administered perorally for 1 h prior to treatment with LPS. LPS was injected through intraperitoneal route for 5 h. Blood was collected and serum was extracted for performing ELISA analysis of TNF-α cytokine. The ELISA was performed according to manufacturer's instructions (BD Bioscience). The absorbance was measured at 450 nm and each estimated cytokine value was normalized with total serum protein.

[3] = rats, oral and intravenous administration; cited from earlier work
TNF-α [4] = assay: Collagen induced arthritis model, serum TNF-α; assay type: in vivo, DBA/1J mice
Experimental: as §1

[5] = pH dependent stability of rohitukine; assay type: physicochemical; conditions: pH 1.2 buffer, pH 4.0 buffer, phosphate buffer pH 6.8, PBS pH 7.4, SGF (pH 1.2), SIF (pH 6.8) and plasma up to 24 hrs
Experimental: The stability of rohitukine was performed in pH 1.2 buffer, pH 4.0 buffer, phosphate buffer pH 6.8, phosphate buffered saline pH 7.4, SGF (pH 1.2), SIF (pH 6.8) and plasma up to 24 hrs. The % of rohitukine hydrolyzed was determined by HPLC analysis. The HPLC analysis was carried out using the method as described in example 1.

Row | bioavailability (in vivo) | AUC(0-t) (in vivo; iv, 5 mg/kg) | clearance (in vivo; iv, 5 mg/kg) | clearance relative to normal hepatic blood flow (55 mL/min/kg) (in vivo; iv, 5 mg/kg) | half-life (in vivo; iv, 5 mg/kg) | volume of distribution relative to normal total body water (0.7 L/kg) (in vivo; iv, 5 mg/kg) | AUC(0-t) (in vivo; po, 50 mg/kg) | Cmax (in vivo; po, 50 mg/kg) | half-life (in vivo; po, 50 mg/kg) | median time to reach the maximum plasma concentration (in vivo; po, 50 mg/kg) | stability of rohitukine (% hydrolyzed by HPLC) [5] | SMILES | inhibition of LPS-stimulated TNF-alpha levels [1] | serum IL-6 cytokine levels (IL-6) | serum TNF-alpha levels (TNF-α [2]) | biological half-life [3] | serum TNF-alpha (TNF-α [4]; 5-15 mg/kg (PO) doses) | serum TNF-alpha cytokine (TNF-α [4]; 5-30 mg/kg doses)
1 | > 100% | 1130 ng·h/mL | 72.7 mL/min/kg | ~1.32 fold | 22.9 min | ~2.41 fold | 26400 ng·h/mL | 14900 ng/mL | 63.6 min | 0.25 h | stable at all the conditions tested | Cc1cc(=O)c2c(O)cc(O)c([C@H]3CCN(C)C[C@H]3O)c2o1 [rohitukine] | significant inhibition of TNF-alpha | decreased levels of serum IL-6 cytokine | not able to significantly inhibit the serum TNF-alpha levels | 1-2 h | could not inhibit serum TNF-alpha | no significant inhibition of TNF-alpha cytokine
2 |  |  |  |  |  |  |  |  |  |  |  | Cc1cc(=O)c2c(O[C@@H]3OC(CO)[C@@H](O)[C@H](O)C3O)cc(O)cc2o1 (stereo partly drawn) [schumaniofioside A] | significant inhibition of TNF-alpha |  |  |  |  | 
